Experiment [1] has as its system monosodium urate (MSU) crystal-induced air pouch inflammation. The experiment can be described thus: Air Pouch Model 1: MSU crystal air pouch, rodent model of gout. The experiment is classed as in vivo, male Sprague-Dawley rats. The conditions noted are these: for Average Exudate Volume / Average Plasma Extravasation, OD620 nm / Total WBC in Sample / WBC: +MSU, 4 h. As to the method: The objective of this study was to evaluate the anti-inflammatory affects of tranilast versus a clinically active treatment for gout, colchicine, as well as a clinically active non-steroidal antiinflammatory drug, indomethacin. This evaluation was carried out in male Sprague-Dawley rats in a rodent model of gout. The animals were injected subcutaneously with 20 ml of sterile air, followed three days later by a supplemental injection with 20 ml of sterile air. Six days after the initial sterile air injection, the rats were injected intravenously with Evan's Blue and pretreated for thirty minutes with either a subcutaneous injection of colchicine (1 mg/kg) or indomethacin (5 mg/kg) or oral administration with either 200 mg/kg or 400 mg/kg of tranilast. After the pretreatment period, the rats were injected with 150 mg of monosodium urate (MSU) crystals (10 mg·ml) into the air pouch. Four hours later, the air pouch was injected with 5 ml heparinized saline and the entire contents of the air pouch removed, recording the total volume. The air pouch contents were evaluated for plasma extravasation and total white blood cell (WBC) count.
On day 0 the rats were anesthetized in a biological cabinet, the nape of the neck was cleansed with 70% isopropanol followed by iodine tincture (VEDCO, lot L021976). Twenty ml sterile (0.22 μm, Fisher Scientific, Cat. 09-720-3, lot R5SN25683) air was injected subcutaneously using a 23 G×2 inch needle fixed to a 20 ml syringe. The rats were returned to routine housing. No adverse reactions were observed.
On day 3 the rats were anesthetized in a biological cabinet, the nape of the neck was cleansed with 70% isopropanol followed by iodine tincture (VEDCO, lot L021976). Twenty ml sterile (0.22 μm, Fisher Scientific, Cat. 09-720-3, lot R5SN25683) air was injected subcutaneously using a 23 G×2 inch needle fixed to a 20 ml syringe. The rats were returned to routine housing. No adverse reactions were observed.
On day 6 the rats were weighed (Mettler, Model PE3000, SN: F69474) and sorted into six treatment groups of ten animals each, based upon average weight. The animals were either dosed subcutaneously with 1 ml/kg colchicine or indomethacin, or orally with either 4 ml/kg or 8 ml/kg tranilast, or 8 ml/kg vehicle. Immediately after test material administration, the rats were intravenously injected with 2 ml/kg Evans Blue.
Thirty minutes after test material administration, the rats were anesthetized and five groups were injected into the air pouch with 15 ml MSU using an 18 G×1 inch needle fitted to a 20 ml syringe. The sixth group was injected with 15 ml saline. The rats were returned to their cages, no adverse affects were observed.
Four hours after MSU injection, the rats were anesthetized and 5 ml 10 U/ml heparinized saline was injected into the air pouch. The air pouch was gently massaged, the contents immediately removed using a 14 G×1 inch needle fitted to a 6 ml syringe, and the exudate volume recorded. An aliquot of the exudate was transferred to heparin-treated microtainer tubes (Becton Dickinson, Cat. 365958, lot 8093666, exp. June 09) for white blood cell (WBC) counting. The remainder of the exudate was centrifuged (Hermle Labrotechnik, Model Z200A, SN: 44060036), the supernatants removed and evaluated at OD620nm (Spectronic Unicam, Model 4000 1/4, SN: 3SGD003006) for plasma extravasation.

Experiment [2] deals with serum uric acid (sUA) levels. As to the kind of experiment: Study A3006GT: phase 2 crossover, sUA in healthy subjects with screening sUA of at least 7.1 mg/dL; tranilast, febuxostat, combination. The experiment is classed as in vivo, human. The method, then: Study A3006GT was a phase 2, randomized, double-blind, 3-period, 3-treatment crossover trial. The primary objective was to compare the effects of three treatments on serum uric acid (sUA) levels in healthy subjects with a screening sUA level of at least 7.1 mg/dL. The three treatments were: 300 mg QD tranilast and 40 mg QD febuxostat (C); 300 mg QD tranilast alone (T); 40 mg QD febuxostat alone (F).
The study was conducted in 23 subjects. […] With two exceptions, every subject provided data for all three treatments. Subject 1001 completed only the first two periods of the study (C and F). […] Therefore, the period 3 data for subject 1024 are excluded from the analyses presented here.
Two endpoints were considered: change from baseline to day 7 in sUA; and percent change from baseline to day 7 in sUA. For each endpoint, an analysis of variance (ANOVA) model for a three-period crossover trial was used. The model included effects for sequence, subject within sequence, treatment, and period. The sequence effect was tested using the subject within sequence mean square as the error term. Two pairwise comparisons between treatments were tested: C−F and C−T. In addition, the two-sided 95% confidence interval for each of these differences was computed.
For each subject for which results were available from all three treatments, the difference between the change for C and the sum of the changes for F and T was computed. Although the true magnitude of the difference between these two values is not known, a conservative null hypothesis is that this difference should be equally likely to be greater than or less than zero. The sign test and the Wilcoxon signed rank test were used to test this null hypothesis.
Using the change for each subject as the dependent variable, an analysis of variance (ANOVA) model for a three-period crossover trial was fit. This model included effects for sequence, subject within sequence, treatment, and period. Using the least squares estimates of the mean changes for each treatment, along with the 3×3 covariance matrix of these three estimates, the mean and SD of the difference between C and F+T was estimated, as follows.

Where [3] appears, read: 5 mg/kg indomethacin subcutaneous, 30 min before MSU.
Where [4] appears, read: Group 3: indomethacin 5 mg/kg subcutaneous.
Setting [5] is: 1 mg/kg colchicine subcutaneous, 30 min before MSU.
Where [6] appears, read: Group 2: colchicine 1 mg/kg subcutaneous.
[7] abbreviates: end of 1-week treatment (day 7), C: 300 mg QD tranilast + 40 mg QD febuxostat, T: 300 mg QD, F: 40 mg QD.
The mark [8] stands for this setting: individual subjects, per study period, end of the 1-week treatment period.

Values joined by “and” are separate entries in the source; they are usually repeats but may differ in a detail not shown here. Equal entries are not always repeated.

With `COc1ccc2c(c1)c(CC(=O)O)c(C)n2C(=O)c1ccc(Cl)cc1` [Indomethacin], in experiment [1] (setting [3]), the “reduction in inflammatory cell infiltration into the air pouch” value is 94% and the “reduction of plasma extravasation” value turned out to be 69%. In addition, in experiment [1] (setting [4]), the “Average Exudate Volume” value came out at 4.9 mL; the “Average Plasma Extravasation, OD620 nm” value was found to be 0.505; the “Total WBC in Sample” value was 18520000; the WBC was found to be 4160000 cells/ml.
Consider `COc1cc2c(c(OC)c1OC)-c1ccc(OC)c(=O)cc1[C@@H](NC(C)=O)CC2` [Colchicine, N-[1,2,3,10-Tetramethoxy-9-oxo-5,6,7,9-tetrahydrobenzo[a]heptalen-7(S)-yl]acetamide], for which, in experiment [1] (setting [5]), the “inhibition of plasma extravasation” value is on record as 52% and the “reduction in inflammatory cell infiltration” value was 88%. Also, in experiment [1] (setting [6]), the “Average Exudate Volume” value came to 3.9 mL; the “Average Plasma Extravasation, OD620 nm” value was 0.776; the “Total WBC in Sample” value was determined as 35131400; the WBC worked out at 9215000 cells/ml.
Turning to `Cc1nc(-c2ccc(OCC(C)C)c(C#N)c2)sc1C(=O)O` [F], in experiment [2] (setting [7]), the “sUA Change from Baseline, Max” value is -0.70 mg/dL; the “sUA Change from Baseline, Mean” value is -2.75 mg/dL; the “sUA Change from Baseline, Median” value is -2.85 mg/dL; the “sUA Change from Baseline, Min” value was -3.80 mg/dL. Moreover, in experiment [2] (setting [7]), the “sUA Percent Change from Baseline, Max” value was −9.21%; the “sUA Percent Change from Baseline, Mean” value is −35.32%; the “sUA Percent Change from Baseline, Median” value is recorded as −36.86%; the “sUA Percent Change from Baseline, Min” value is −48.68%. In experiment [2] (setting [8]), the “sUA Change from baseline” value is −0.7 mg/dL and −2.9 mg/dL (2×) and −2.1 mg/dL (2×) and −1.2 mg/dL and −1.8 mg/dL and −2.8 mg/dL and −3.5 mg/dL (2×) and −2.4 mg/dL and −3.7 mg/dL (2×) and −2.7 mg/dL and −3.6 mg/dL (2×) and −3.3 mg/dL and −3.8 mg/dL and −2.2 mg/dL and −3.1 mg/dL and −2.3 mg/dL and −2.6 mg/dL; the “sUA Percent Change from baseline” value is −9.21% and −35.80% and −28.00% and −16.90% and −22.78% and −41.43% and −43.08% and −40.23% and −35.82% and −36.63% and −41.54% and −46.75% and −28.38% and −37.08% and −43.18% and −31.43% and −40.70% and −39.13% and −48.68% and −42.47% and −35.38% and −32.50%.

Source of the values: US20100160351A1, “PHARMACEUTICAL COMPOSITIONS AND METHODS FOR TREATING HYPERURICEMIA AND RELATED DISORDERS” (NUON THERAPEUTICS, INC., priority 2008, published 2010).
